These results are taken from article PMC8445847 (iScience, 2021).

The subject of series [1] is JeKo-1 cells. Put plainly: Alamar Blue cell viability assay. The format is cell-based, human. To be noted: read-out: antiproliferative IC50 JeKo-1. (In general: Resazurin is reduced to fluorescent resorufin, in cell work by metabolically active cells.)
The subject of series [2] is Mino cells. Kind of series: Alamar Blue cell viability assay. Format: cell-based, human. To be noted: 48 h, read-out: antiproliferative IC50 Mino.
In series [3] the test system is Ibrutinib-resistant Granta cells. Kind of series: Alamar Blue cell viability assay. The format is cell-based. To be noted: Homo sapiens, 48 h, read-out: antiproliferative IC50 Granta.
Series [4] has as its system JeKo-1 cells. Kind of series: Annexin V/propidium iodide apoptosis assay. Format: cell-based, human. To be noted: up to 5 μM, 24 h, Annexin V/PI.
The test system of series [5] is Mino cells. Put plainly: Annexin V/propidium iodide apoptosis assay. To be noted: up to 5 μM, 24 h, Annexin V/PI. The format is cell-based, human.
A further series concerns Z-138 cells. Put plainly: Annexin V/propidium iodide apoptosis assay. Format: cell-based, human. The following applies: up to 5 μM, 24 h, Annexin V/PI.
The subject of the next series is JeKo-1 and Mino cells. Kind of series: apoptosis after drug washout. The format is cell-based, human. To be noted: 5 μM, treated 4 or 8 h, analyzed 16 or 20 h post washout.
Series [6] concerns pPLCγ2(Y759) in JeKo-1 cells. Kind of series: Western blot of IgM-stimulated cells. To be noted: IgM-stimulated JeKo-1 cells, 1 hr. The format is cell-based, human.
The conditions of series [7]: relapsed-refractory MCL; ref Byrd et al., 2013; Sarkozy and Ribrag, 2020; cited from earlier work.
For series [8], the system named is BRD4 occupancy at the cMYC promoter in JeKo-1 cells. Put plainly: BRD4 ChIP assay at the cMYC promoter. The format is cell-based, human. The following applies: 1 μM, 24 h.
A further series has as its target BTK (Homo sapiens, UniProt Q06187). Kind of series: in vitro kinase assay. The format is biochemical. The following applies: read-out: IC50 BTK.
A further series deals with PI3Kα (Homo sapiens, UniProt P42336). Kind of series: in vitro kinase assay. Format: biochemical. To be noted: read-out: IC50 PI3Kα.
The target of another series is PI3Kδ (Homo sapiens, UniProt O00329). Put plainly: in vitro kinase assay. Format: biochemical. The following applies: read-out: IC50 PI3Kδ.
The target in series [9] is BRD4 BD1 (Homo sapiens, UniProt O60885). Kind of series: Alpha Screen assay against tetra-acetylated histone H4 peptide. The format is binding. The following applies: read-out: IC50 BRD4 BD1.
The target in series [10] is BRD4 BD2 (Homo sapiens, UniProt O60885). The description is as above. Format: binding. To be noted: read-out: IC50 BRD4 BD2.
The subject of the next series is JeKo-1 BTK-WT cells. Put plainly: cell viability assay, engineered BTK cell lines. Format: cell-based, human.
Another series relates to JeKo-1 BTK-C481S cells. Kind of series: cell viability assay, engineered BTK cell lines. Format: cell-based, human. The following applies: read-out: IC50 JeKo-1 BTK-C481S; 48 h, Ibrutinib-resistant BTK-C481S.
Another series has as its system Mino BTK-WT cells. Put plainly: cell viability assay, engineered BTK cell lines. Format: cell-based, human. The following applies: read-out: IC50 Mino BTK-WT; 48 h.
In the next series the test system is Mino BTK-C481S cells. Put plainly: cell viability assay, engineered BTK cell lines. The format is cell-based, human. The following applies: read-out: IC50 Mino BTK-C481S; 48 h, Ibrutinib-resistant BTK-C481S.
The subject of series [11] is JeKo-1 chronic Ibrutinib-resistant cell line. Put plainly: Cell titer Glow viability assay. The format is cell-based, human.
Series [12] deals with JeKo-1 cells. Put plainly: cell cycle analysis. Format: cell-based, human. The following applies: JeKo-1, 1–5 μM, 24 h.
For series [13], the system named is pBTK(Y223) and pAKT(S473) in Mino cells. Kind of series: Western blot of IgM-stimulated cells. The format is cell-based, human. To be noted: 1 hr. (In general: In western blotting, separated proteins are transferred to a membrane and probed.)
Series [14] deals with cMYC, BCL2 and HEXIM1 expression in JeKo-1 and Mino cells. Kind of series: qRT-PCR of BRD4 target genes. The following applies: 1 and 2.5 μM, 24 hr. The format is cell-based, human. For orientation: Quantitative PCR measures a nucleic acid by following its amplification.
For series [15], the system named is cMYC protein in Jeko-1 and Mino cells. Kind of series: Western blot of cMYC. Format: cell-based, human.
In series [16] the test system is BRD4 BD1. Put plainly: NMR titration. The format is binding. The following applies: 15N-labeled protein, PBS pH 6.8.
Series [17] has as its system BRD4 BD2. Kind of series: NMR titration. Format: binding. To be noted: 15N-labeled protein, PBS pH 6.8.
The next series has as its system JeKo-1 MCL tumors. Put plainly: JeKo-1 MCL xenograft tumor model. The format is in vivo. To be noted: 60 mg/kg daily by oral gavage; SRX3262 vs Ibrutinib-treated mice.
Series [18] relates to JeKo-1 BTK-WT, JeKo-1 BTK-C481S and Mino BTK-C481S cells. The following applies: up to 5 μM.
Series [19] concerns BTK and AKT phosphorylation in Mino cells. Kind of series: inhibitor washout assay. To be noted: 1 h treatment, 24 h post washout.

SMILES strings stand for the structures. Where two headings read alike, the source gives them in different places.

Sequence of PI3Kα (P42336 whole entry): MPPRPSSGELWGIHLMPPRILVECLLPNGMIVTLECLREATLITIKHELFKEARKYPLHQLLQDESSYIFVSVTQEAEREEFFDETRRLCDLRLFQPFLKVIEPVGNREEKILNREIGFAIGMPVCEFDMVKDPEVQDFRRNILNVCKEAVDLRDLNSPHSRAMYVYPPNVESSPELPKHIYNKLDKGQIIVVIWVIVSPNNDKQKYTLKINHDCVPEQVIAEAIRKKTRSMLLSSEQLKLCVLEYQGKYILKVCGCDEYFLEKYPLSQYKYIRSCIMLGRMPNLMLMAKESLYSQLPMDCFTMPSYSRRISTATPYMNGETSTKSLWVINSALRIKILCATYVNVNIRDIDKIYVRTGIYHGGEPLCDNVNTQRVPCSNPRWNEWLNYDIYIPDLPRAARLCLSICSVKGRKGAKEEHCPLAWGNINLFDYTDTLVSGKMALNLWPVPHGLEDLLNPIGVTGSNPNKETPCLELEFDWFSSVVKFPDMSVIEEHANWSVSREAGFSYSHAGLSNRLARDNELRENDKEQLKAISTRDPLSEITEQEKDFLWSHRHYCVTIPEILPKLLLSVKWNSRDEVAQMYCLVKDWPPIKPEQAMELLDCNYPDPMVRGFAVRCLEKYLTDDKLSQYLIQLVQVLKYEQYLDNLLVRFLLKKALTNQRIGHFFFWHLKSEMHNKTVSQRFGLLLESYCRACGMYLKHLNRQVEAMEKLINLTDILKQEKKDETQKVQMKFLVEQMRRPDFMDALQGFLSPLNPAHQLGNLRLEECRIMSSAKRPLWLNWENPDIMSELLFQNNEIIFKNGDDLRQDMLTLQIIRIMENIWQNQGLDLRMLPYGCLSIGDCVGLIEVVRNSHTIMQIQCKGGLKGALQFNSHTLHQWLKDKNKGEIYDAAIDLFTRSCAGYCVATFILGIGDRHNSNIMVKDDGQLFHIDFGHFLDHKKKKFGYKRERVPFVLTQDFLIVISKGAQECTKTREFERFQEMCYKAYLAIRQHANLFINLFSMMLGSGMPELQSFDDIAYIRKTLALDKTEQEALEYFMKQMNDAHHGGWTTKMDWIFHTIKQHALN
Sequence of PI3Kα (P27986 whole entry partner): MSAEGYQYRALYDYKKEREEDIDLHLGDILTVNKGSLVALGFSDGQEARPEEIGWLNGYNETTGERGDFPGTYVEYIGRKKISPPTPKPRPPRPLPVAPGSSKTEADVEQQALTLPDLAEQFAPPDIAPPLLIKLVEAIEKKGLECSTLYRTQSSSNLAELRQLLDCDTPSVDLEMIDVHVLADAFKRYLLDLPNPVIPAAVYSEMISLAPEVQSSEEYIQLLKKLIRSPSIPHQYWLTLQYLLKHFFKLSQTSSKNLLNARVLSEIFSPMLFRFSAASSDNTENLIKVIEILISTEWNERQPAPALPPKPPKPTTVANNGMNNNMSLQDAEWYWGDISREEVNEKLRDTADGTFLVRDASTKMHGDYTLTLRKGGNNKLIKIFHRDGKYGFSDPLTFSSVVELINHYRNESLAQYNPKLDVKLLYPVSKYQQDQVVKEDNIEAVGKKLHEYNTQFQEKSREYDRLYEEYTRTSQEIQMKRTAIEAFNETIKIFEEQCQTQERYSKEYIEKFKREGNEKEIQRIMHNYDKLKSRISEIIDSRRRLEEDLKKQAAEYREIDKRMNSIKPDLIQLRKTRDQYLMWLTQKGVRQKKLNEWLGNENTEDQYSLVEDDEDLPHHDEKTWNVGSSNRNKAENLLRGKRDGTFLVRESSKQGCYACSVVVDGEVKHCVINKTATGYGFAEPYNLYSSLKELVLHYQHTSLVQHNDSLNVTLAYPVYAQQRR
Sequence of PI3Kδ (O00329 whole entry): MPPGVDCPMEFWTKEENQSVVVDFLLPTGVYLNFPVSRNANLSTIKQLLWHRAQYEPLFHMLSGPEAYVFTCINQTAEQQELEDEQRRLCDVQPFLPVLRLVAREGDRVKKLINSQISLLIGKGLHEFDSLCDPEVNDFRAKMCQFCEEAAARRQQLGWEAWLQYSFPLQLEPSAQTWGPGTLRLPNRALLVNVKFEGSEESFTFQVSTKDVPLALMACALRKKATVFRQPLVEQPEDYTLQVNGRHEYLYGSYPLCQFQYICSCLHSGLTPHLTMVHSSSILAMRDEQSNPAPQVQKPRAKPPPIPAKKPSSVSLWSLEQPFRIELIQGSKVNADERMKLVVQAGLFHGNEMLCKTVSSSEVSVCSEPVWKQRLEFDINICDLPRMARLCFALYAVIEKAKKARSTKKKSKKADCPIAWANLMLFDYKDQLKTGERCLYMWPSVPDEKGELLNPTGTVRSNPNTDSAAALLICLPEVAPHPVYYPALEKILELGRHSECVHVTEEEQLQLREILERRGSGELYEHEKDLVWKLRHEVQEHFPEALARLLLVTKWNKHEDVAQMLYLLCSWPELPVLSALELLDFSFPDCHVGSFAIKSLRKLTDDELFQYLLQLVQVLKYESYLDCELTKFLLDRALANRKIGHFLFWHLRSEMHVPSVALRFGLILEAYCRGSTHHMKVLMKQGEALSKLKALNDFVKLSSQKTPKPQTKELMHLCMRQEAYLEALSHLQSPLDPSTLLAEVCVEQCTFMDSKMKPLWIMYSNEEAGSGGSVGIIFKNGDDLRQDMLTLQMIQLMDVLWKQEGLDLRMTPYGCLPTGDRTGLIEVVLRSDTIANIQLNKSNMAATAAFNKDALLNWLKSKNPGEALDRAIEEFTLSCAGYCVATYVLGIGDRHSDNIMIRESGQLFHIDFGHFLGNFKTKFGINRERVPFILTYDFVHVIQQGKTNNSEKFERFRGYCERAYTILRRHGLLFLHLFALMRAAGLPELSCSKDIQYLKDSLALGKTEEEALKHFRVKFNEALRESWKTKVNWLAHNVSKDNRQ
Sequence of PI3Kδ (P27986 whole entry partner): as the sequence (P27986 whole entry partner) above
Sequence of BTK (Q06187 whole entry): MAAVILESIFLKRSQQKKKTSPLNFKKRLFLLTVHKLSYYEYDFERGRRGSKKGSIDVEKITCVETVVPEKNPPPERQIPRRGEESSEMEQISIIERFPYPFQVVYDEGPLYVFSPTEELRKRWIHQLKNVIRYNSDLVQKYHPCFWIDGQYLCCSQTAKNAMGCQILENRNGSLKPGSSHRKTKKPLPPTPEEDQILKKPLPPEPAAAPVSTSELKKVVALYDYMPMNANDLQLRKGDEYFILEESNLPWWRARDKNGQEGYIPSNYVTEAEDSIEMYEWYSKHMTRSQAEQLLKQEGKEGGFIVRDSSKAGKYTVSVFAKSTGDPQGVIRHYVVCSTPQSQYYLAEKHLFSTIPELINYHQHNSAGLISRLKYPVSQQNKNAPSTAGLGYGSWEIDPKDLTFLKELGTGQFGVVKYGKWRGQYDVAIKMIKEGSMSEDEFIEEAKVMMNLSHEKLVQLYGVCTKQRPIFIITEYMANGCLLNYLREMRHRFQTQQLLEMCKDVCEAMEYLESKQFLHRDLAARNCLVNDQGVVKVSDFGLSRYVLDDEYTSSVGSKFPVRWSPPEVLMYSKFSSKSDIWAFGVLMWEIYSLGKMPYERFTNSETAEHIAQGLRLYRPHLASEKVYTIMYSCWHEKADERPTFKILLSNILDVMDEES

What is called IC50 is the midpoint of a concentration-inhibition curve. In the case of `C=CC(=O)N1CCC[C@@H](n2nc(-c3ccc(Oc4ccccc4)cc3)c3c(N)ncnc32)C1` [Ibrutinib, reference compound], the 50% inhibitory concentration (IC50) in the series with JeKo-1 cells [1] (Homo sapiens, JeKo-1, 48 h) amounted to 8000 nM; with Mino cells [2] (Homo sapiens, MINO) it was 6500 nM; in series [3], 20000 nM. In addition, in the series with JeKo-1 cells [4], the “apoptosis JeKo-1” value was “no effect”. In addition, the “apoptosis Mino” value in the series on Mino cells [5] is given as “mild effect”. The “apoptosis Z-138” value with Z-138 cells is “mild effect”. In the series with JeKo-1 and Mino cells, the “cells undergoing apoptosis after drug washout” value is 20–30%. Further, the “phosphorylation of PLCγ2” value in series [6] is “inhibited phosphorylation of PLCγ2”. Besides, in series [7], the complete response is 23%. In series [7], the objective response rate is listed as 68%.

`Cc1sc2c(c1C)C(c1ccc(Cl)cc1)=N[C@@H](CC(=O)OC(C)(C)C)c1nnc(C)n1-2` [JQ1, reference compound]: the “BRD4 localization at the cMYC promoter site” value in series [8] is recorded as “decreased”.

Consider `C=CC(=O)N1CCOc2ccc(-c3csc4c(=O)cc(N5CCOCC5)oc34)cc21` [SRX3262], for which the IC50 at BTK is 35 nM; at PI3Kα it was 64 nM; at PI3Kδ, 16 nM; on BRD4 BD1 [9] it was 228 nM; on BRD4 BD2 [10], 348 nM; in the series on JeKo-1 cells [1] (Alamar Blue, 48 h), 620 nM. Also, the IC50 in the series on Mino cells [2] (Alamar Blue) was 130 nM; in the series with JeKo-1 BTK-WT cells (read-out: IC50 JeKo-1 BTK-WT, 48 h) it was 550 nM; in the series with JeKo-1 BTK-C481S cells it was 730 nM; in the series with Mino BTK-WT cells, 690 nM; with Mino BTK-C481S cells, 380 nM. Moreover, in the series on JeKo-1 BTK-WT cells (both JeKo-1 BTK-WT and JeKo-1 BTK-C481S cells), the “times more effective than Ibrutinib” value is given as 20–27 times. The “decrease in cell viability compared to Ibrutinib” value in series [11] was 3–6 times. In the series with JeKo-1 cells [4], the “apoptosis JeKo-1” value is reported as “dramatically increased apoptosis”. For the same compound, the “apoptosis Mino” value with Mino cells [5] is recorded as “dramatically increased apoptosis”. Further, the “apoptosis Z-138” value in the series with Z-138 cells is on record as “dramatically increased apoptosis”. Moreover, the “cells undergoing apoptosis after drug washout” value with JeKo-1 and Mino cells is 40–70%. Besides, the cell cycle arrest entry in the series with JeKo-1 cells [12] is given as “induced G2 phase cell cycle arrest”. In addition, the “phosphorylation of S473 in AKT” value in [13] was “inhibited phosphorylation”. The “phosphorylation of Y223 in BTK” value in series [13] is “inhibited phosphorylation”. The “phosphorylation of PLCγ2” value in series [6] is “inhibited phosphorylation of PLCγ2”. In addition, the “BRD4 localization at the cMYC promoter site” value in series [8] is “decreased”. Besides, the “expression of HEXIM1” value in series [14] was “increase of expression of HEXIM1”. Further, the “expression of cMYC and BCL2” value in [14] is “decrease of expression”. The cMYC protein level result in series [15] was “decreased the cMYC protein level”. The “binding to BRD4 BD1 (chemical shift perturbations)” value with BRD4 BD1 [16] is “binds to both BD1 and BD2”. Besides, in the series with BRD4 BD2 [17], the “binding to BRD4 BD2 (chemical shift perturbations)” value is “binds to both BD1 and BD2”. In the series with JeKo-1 MCL tumors, the body weight entry was “did not observe any notable changes in body weight”. In addition, in series [18], the “apoptosis in BTK-WT and Ibrutinib-resistant BTK-C481S cells” value was “increase in apoptotic cell death”. In series [19], the “AKT phosphorylation after inhibitor washout” value was “sustained inhibition of AKT phosphorylation”.
